US20070254319A1, “IDENTIFICATION OF A CONS[…] CANCER STEM CELL” (University of Pittsburgh - Of the Commonwealth System of …, priority 2006, published 2007)

How the values were obtained:
[1] = tested on: parental K562 cells (native ABCG2); experiment: Hoechst 33342 efflux (side population, SP) in parental K562 cells with and without inhibitors; type: cell-based, human
Procedure: (§1) Cells were stained with anti-CD117 and incubated for 90 min in the presence of Ho33342 (8 microM, ˜5 microg/mL) and R123 (0.13 microM) with and without inhibitors. PI was added immediately before acquisition on the MoFlo flow cytometer in order to eliminate dead cells. Events were gated to exclude cell clusters and dead cells. The side population (SP) phenotype (blue gate) and R123 excluding cells (single parameter histogram left of the dashed line) were measured on CD117− (top panels) and CD117+ (bottom panels).
(§2) Here, the SP cells (within the blue gate in the left plots) is color evented blue, whereas SP negative cells are shown in gray.
(§3) Simultaneous measurement of R123 and Ho33342 dye efflux. […] Two cell lines were used, the parent line K562, which has a small subpopulation of CD117+ cells which constitutively express ABCG2 (BCRP1), and the ABCB1 (MDR1) transfectant line K562-G185 (39) (FIG. 9). G185 cells were maintained in vincristine (100 ng/mL) to select against ABCB1 negative cells.

[2] = tested on: K562-G185 cells (ABCB1/MDR1 transfectant); experiment: Hoechst 33342 efflux (side population, SP) in MDR1-transfected K562-G185 cells with and without inhibitors; type: cell-based, human; conditions: CD117- cells; Ho33342 8 microM and R123 0.13 microM, 90 min
Procedure: as §1, §2, §3

[3] = tested on: ABCG2 (BCRP); experiment: Hoechst 33342 / R123 efflux (SP phenotype) in freshly isolated therapy naive non-small cell lung tumor cells; type: cell-based; conditions: human, probe Hoechst 33342; inhibitor 10 microM; coincubation with Hoechst 33342 8 microM and R123 0.13 microM, 90 minutes at 37° C.
Procedure: Antibody stained suspended tumor cells were incubated simultaneously with the ABCG2/ABCB1 substrate Hoechst 33342 (8 microM) plus the ABCB1 substrate rhodamine 123 (R123, 0.13 microM) for 90 minutes at 37° C. Propidium iodide (PI, 10 microg/mL) was added immediately before sample acquisition. All events were gated on PI excluding (live), non-hematopoietic singlets. Five million events were collected. This basic experimental design has been repeated, with modifications, on 10 samples from untreated breast, ovarian, gastric and lung tumors with consistent results.
SP (top panels) and non-SP cells (bottom panels) were further characterized: A proportion of SP cells also excluded the ABCB1 substrate dye R123. These accounted for 29% of the SP cells (color-evented red in the dot plots) and accounted for almost all of the cells with low forward and side light scatter consistent with a resting morphology (FIG. 5). […] A significant proportion of both SP and non-SP cells expressed CD90, often in combination with epithelial specific antigen, HEA.

SMILES	effect on Ho33342 transport, in words ([1]; CD117+ population of parental K562 cells)	inhibition of the native SP phenotype, in words ([1]; CD117- cells, native SP 1.42% of cells, Ho33342 8 microM, 90 min)	effect on the side population (SP), in words [2]	inhibition at 90 min, 10 microM [3] [%]
COc1ccc2c3c([nH]c2c1)[C@H](C=C(C)C)N1C(=O)[C@@H]2CCCN2C(=O)[C@@H]1C3 [fumitremorgin]	abrogates	equally inhibited	not affected	75
CC[C@]1(O)C[C@H]2CN(CCc3c([nH]c4ccccc34)[C@@](C(=O)OC)(c3cc4c(cc3OC)N(C=O)[C@H]3[C@@](O)(C(=O)OC)[C@H](OC(C)=O)[C@]5(CC)C=CCN6CC[C@]43[C@@H]65)C2)C1 [vincristine]	–	–	not affected	–
